SMILES strings stand for the structures. pEC50: −log10 of the molar value. A value given as a limit tells only on which side of the number the result lay.

Experiment [1] concerns CCRF-CEM. Nature of the experiment: Cytotoxic concentration required to inhibit 50% […] in CEM cells. Format: functional. The note with it: Homo sapiens.
Experiment [2] can be described thus: Effective concentration required to inhibit 50% of HIV-1 in peripheral blood mononuclear cells (PBMC). The format is functional, Homo sapiens.
Experiment [3] can be described thus: Cytotoxic concentration required to inhibit 50% […] in peripheral blood mononuclear cells (PBMC). The format is functional. Conditions: Homo sapiens.

With `COC(=O)[C@H](Cc1ccccc1)NP(=O)(OC)OCC1OC(n2cc(C)c(=O)[nH]c2=O)CC1F` (stereo not given in full), the CC50 in experiment [1] and in experiment [3] was > 100 µM in each case. For the same molecule, the pEC50 (commonly the EC50 on a negative log10 scale, so that one unit is a factor of ten) in experiment [2] was < 6.68.

Consider `COC(=O)[C@H](Cc1c[nH]c2ccccc12)NP(=O)(OC)OCC1OC(n2cc(C)c(=O)[nH]c2=O)CC1F` (stereo not given in full), for which the CC50 in experiment [1] and in experiment [3] was > 100 µM in each case. Moreover, the pEC50 in experiment [2] is 6.54.

For `COC(=O)[C@H](Cc1c[nH]c2ccccc12)NP(=O)(O)OC[C@H]1O[C@@H](n2cc(C)c(=O)[nH]c2=O)C[C@@H]1N=[N+]=[N-]`, the CC50 in experiment [1] and in experiment [3] was > 100 µM each time. This molecule showed a pEC50 in experiment [2] of 8.00.

Turning to `COC(=O)[C@H](Cc1ccccc1)NP(=O)(O)OCC1OC(n2cc(C)c(=O)[nH]c2=O)CC1N=[N+]=[N-]` (stereo not given in full), the CC50 in experiment [1] and in experiment [3] was > 100 µM each time. This molecule also gave a pEC50 in experiment [2] of 6.22.

With `COC(=O)[C@H](Cc1c[nH]c2ccccc12)NP(=O)(OCCC#N)OCC1OC(n2cc(C)c(=O)[nH]c2=O)CC1N=[N+]=[N-]` (stereo not given in full), the CC50 in experiment [1] and in experiment [3] was > 100 µM each time. The molecule also had a pEC50 in experiment [2] of 6.40.

For the molecule `COC(=O)[C@H](Cc1c[nH]c2ccccc12)NP(=O)(O)OCC1OC(n2cc(C)c(=O)[nH]c2=O)CC1F` (stereo not given in full), the CC50 – broadly, the concentration that lowers cell viability or growth by half – in experiment [1] is 35.1 µM; in experiment [3], > 100 µM. For the same molecule, in experiment [2], the pEC50 is 6.05.

As for `COC(=O)[C@H](Cc1c[nH]c2ccccc12)NP(=O)(OCCC#N)OCC1OC(n2cc(C)c(=O)[nH]c2=O)CC1F` (stereo not given in full), the CC50 in experiment [1] was > 95.6 µM; in experiment [3], > 100 µM. In experiment [2], this molecule gave a pEC50 of 6.70.

Consider `COC(=O)[C@H](Cc1ccccc1)NP(=O)(OCCC#N)OCC1OC(n2cc(C)c(=O)[nH]c2=O)CC1N=[N+]=[N-]` (stereo not given in full), for which the CC50 in experiment [1] and in experiment [3] was > 100 µM throughout. Also, the pEC50 in experiment [2] is < 6.00.

Turning to `COC(=O)[C@H](Cc1ccccc1)NP(=O)(OC)OCC1OC(n2cc(C)c(=O)[nH]c2=O)CC1N=[N+]=[N-]` (stereo not given in full), the CC50 is > 50 µM in experiment [1] and > 100 µM in experiment [3]. Also, in experiment [2], the pEC50 was 7.05.

With `COC(=O)[C@H](Cc1c[nH]c2ccccc12)NP(=O)(OC)OCC1OC(n2cc(C)c(=O)[nH]c2=O)CC1N=[N+]=[N-]` (stereo not given in full), the CC50 in experiment [1] and in experiment [3] was > 50 µM in each case. This molecule showed a pEC50 in experiment [2] of 6.52.

As to `Cc1cn([C@H]2C[C@H](F)[C@@H](CO)O2)c(=O)[nH]c1=O` [ALOVUDINE], the pEC50 in experiment [2] is 9.00. In addition, the midpoint of cytotoxicity in experiment [3], the CC50, lay at 8.6 µM.

Regarding `Cc1cn([C@H]2C[C@H](N=[N+]=[N-])[C@@H](CO)O2)c(=O)[nH]c1=O` [ZIDOVUDINE], the figures for the CC50 in experiment [1] and in experiment [3] were 14.3 µM and > 100 µM, respectively. In experiment [2], this molecule gave a pEC50 of 7.10.

Source of the values: ChEMBL document CHEMBL1130426, “Probing the mechanism of action and decomposition of amino acid phosphomonoester amidates of antiviral nucleoside prodrugs” (J Med Chem, 1997).
